Laboratory results taken from patent US20200017496A1 (priority 2017, published 2020).
Where two headings read alike, the source gives them in different places.

What was measured:
Assay in all cases: MIC of compounds alone and combined with antibacterials, broth microdilution (CLSI)
Format in all cases: cell-based
[1] = tested on: Escherichia coli (ECO) isolates; settings: for MIC ATB in combination: AF1 @ 4 μg/mL; for MIC: Escherichia coli
How it was run: (§1)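 Log-phase isolates at final 5·10^5 CFU/mL in cation-adjusted Mueller-Hinton broth, incubated 16-20 h at 35° C in ambient air. MIC read visually as lowest concentration preventing growth, for compound alone and for antibacterial at each compound concentration.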

[2] = tested on: Providencia rettgeri (PRE) isolates; settings: for MIC: Providencia rettgeri, ATB alone
How it was run: as §1

[3] = tested on: Providencia stuartii (PST) isolates; settings: for MIC ATB in combination: AF1 @ 4 μg/mL; for MIC: Providencia stuartii, ATB alone, read-out: MIC
How it was run: as §1

[4] = tested on: Salmonella typhimurium (STY) isolates
How it was run: as §1

For CO/N=C(\C(=O)N[C@@H]1C(=O)N2C(C(=O)O)=C(COC(N)=O)CS[C@H]12)c1ccco1 [FUR, Cefuroxime], the “MIC ATB in combination” value ([1]; ECO 260508) was 2 µg/mL, the “MIC ATB in combination” value ([1]; ECO RGN238) was 8 µg/mL and the “MIC ATB in combination” value ([1]; ECO UFR15) was 2 µg/mL. For the same compound, the “MIC ATB in combination” value ([1]; ECO UFR16) was 16 µg/mL, the “MIC ATB in combination” value ([1]; ECO UFR18) was 32 µg/mL and the “MIC ATB in combination” value ([1]; ECO UFR19) was 16 µg/mL. For the same compound, the “MIC ATB in combination” value ([1]; ECO UFR20) was 64 µg/mL, the “MIC ATB in combination” value ([1]; ECO UFR61O) was 8 µg/mL and the “MIC ATB in combination” value ([1]; ECO UFR62) was 8 µg/mL. The “MIC ATB in combination” value ([1]; ECO UFR74) was 16 µg/mL, the “MIC ATB in combination” value ([1]; ECO UFR86) was 32 µg/mL and the “MIC ATB in combination” value ([1]; ECO UFR174) was 2 µg/mL. The “MIC ATB in combination” value ([1]; ECO UFR175) was 8 µg/mL, the “MIC ATB in combination” value ([1]; ECO UFR176) was 4 µg/mL and the “MIC ATB in combination” value ([1]; ECO UFR184) was 64 µg/mL. For the same compound, the “MIC ATB in combination” value ([1]; ECO UFR186) was 16 µg/mL, the “MIC ATB in combination” value ([1]; ECO UFR187) was 8 µg/mL and the “MIC ATB in combination” value ([1]; ECO UFR189) was 2 µg/mL. The “MIC ATB in combination” value ([1]; ECO UFR190) was 8 µg/mL, the “MIC ATB in combination” value ([1]; ECO UFR191) was 8 µg/mL and the “MIC ATB in combination” value ([1]; ECO UFR207) was 2 µg/mL. For the same compound, the “MIC ATB in combination” value ([1]; ECO UFR209) was 4 µg/mL, the “MIC ATB in combination” value ([1]; ECO UFR210) was 2 µg/mL and the “MIC ATB in combination” value ([1]; ECO UFR211) was 8 µg/mL. The “MIC ATB in combination” value ([1]; ECO UFR218) was 4 µg/mL, the MIC [1] was greater than 256 µg/mL and the MIC ([1]; strain ECO 4133 (TEM-30, OXA-1), ATB alone) was 16 µg/mL. The MIC ([1]; strain ECO 5302 (TEM-1, OXA-1), ATB alone) was 32 µg/mL, the MIC ([1]; strain ECO 131119 (TEM-1, OXA-48), ATB alone) was 8 µg/mL and the MIC ([1]; strain ECO 180070 (TEM-1, CTX-M-15), ATB alone, read-out: MIC) was greater than 256 µg/mL. The MIC ([1]; strain ECO 190314 (CTX-M-1), ATB alone, read-out: MIC) was greater than 256 µg/mL, the MIC ([1]; strain ECO 190317 (TEM-1, SHV-12, CTX-M-15, OXA-1), ATB alone) was greater than 512 µg/mL and the MIC ([1]; strain ECO 190457 (CTX-M-15, OXA-1), ATB alone, read-out: MIC) was greater than 256 µg/mL. The MIC ([1]; strain ECO 190549 (CTX-M-1), ATB alone, read-out: MIC) was greater than 256 µg/mL, the MIC ([1]; strain ECO 200159 (TEM-1, CTX-M-14), ATB alone, read-out: MIC) was greater than 256 µg/mL and the MIC ([1]; strain ECO 200259 (CTX-M-14), ATB alone, read-out: MIC) was greater than 256 µg/mL. For the same compound, the MIC ([1]; strain ECO 200344 (CTX-M-1), ATB alone, read-out: MIC) was greater than 256 µg/mL, the MIC ([1]; strain ECO 260096 (CTX-M-132), ATB alone, read-out: MIC) was greater than 256 µg/mL and the MIC ([1]; strain ECO 260304 (CTX-M-15), ATB alone, read-out: MIC) was greater than 256 µg/mL. It also gave an MIC ([1]; strain ECO 260508 (TEM-1, CTX-M-15, OXA-1), ATB alone, read-out: MIC) greater than 256 µg/mL, an MIC ([1]; strain ECO RGN238 (OXA-1), ATB alone) of 16 µg/mL and an MIC ([1]; strain ECO UFR15 (TEM-1, OXA-48), ATB alone) of 16 µg/mL. It also gave an MIC ([1]; strain ECO UFR16 (TEM-1, CTX-M-15, OXA-1, OXA-48), ATB alone, read-out: MIC) greater than 256 µg/mL, an MIC ([1]; strain ECO UFR17 (TEM-1, CTX-M-15, CMY-2, OXA-1, OXA-181), ATB alone, read-out: MIC) greater than 256 µg/mL and an MIC ([1]; strain ECO UFR18 (CTX-M-15, OXA-204), ATB alone, read-out: MIC) greater than 256 µg/mL. For the same compound, the MIC ([1]; strain ECO UFR19 (CTX-M-15, CMY-2, OXA-1, OXA-204), ATB alone, read-out: MIC) was greater than 256 µg/mL, the MIC ([1]; strain ECO UFR20 (SHV-1, CTX-M-15, OXA-1, OXA-232), ATB alone, read-out: MIC) was greater than 256 µg/mL and the MIC ([1]; strain ECO UFR74 (SHV-1, DHA-1), ATB alone, read-out: MIC) was greater than 256 µg/mL. It also gave an MIC ([1]; strain ECO UFR86 (ompC-, ompF-), ATB alone, read-out: MIC) of 64 µg/mL, an MIC ([1]; strain ECO UFR184 (CTX-M-15, CMY-4, OXA-1, OXA-204), ATB alone, read-out: MIC) greater than 256 µg/mL and an MIC ([1]; strain ECO UFR185 (OXA-48), ATB alone, read-out: MIC) greater than 256 µg/mL. It also gave an MIC ([1]; strain ECO UFR186 (TEM-1, CTX-M-14, OXA-48), ATB alone, read-out: MIC) greater than 256 µg/mL, an MIC ([1]; strain ECO UFR187 (CTX-M-15, OXA-48), ATB alone, read-out: MIC) greater than 256 µg/mL and an MIC ([1]; strain ECO UFR189 (TEM-1, CTX-M-15, OXA-48), ATB alone, read-out: MIC) greater than 256 µg/mL. For the same compound, the MIC ([1]; strain ECO UFR190 (CTX-M-24, OXA-48), ATB alone, read-out: MIC) was greater than 256 µg/mL, the MIC ([1]; strain ECO UFR191 (TEM-1, CTX-M-24, OXA-48), ATB alone, read-out: MIC) was greater than 256 µg/mL and the MIC ([1]; strain ECO UFR207 (CTX-M-15), ATB alone, read-out: MIC) was greater than 256 µg/mL. For the same compound, the MIC ([1]; strain ECO UFR208 (SHV-12), ATB alone, read-out: MIC) was greater than 256 µg/mL, the MIC ([1]; strain ECO UFR209 (TEM-1, CTX-M-15), ATB alone, read-out: MIC) was greater than 256 µg/mL and the MIC ([1]; strain ECO UFR210 (SHV-12), ATB alone, read-out: MIC) was greater than 256 µg/mL. The MIC ([1]; strain ECO UFR212 (CMY-2), ATB alone, read-out: MIC) was greater than 256 µg/mL, the MIC ([1]; strain ECO UFR218 (TEM-1, SHV-1, CTX-M-15), ATB alone, read-out: MIC) was greater than 256 µg/mL and the “MIC ATB in combination” value ([2]; PRE UFR99, AF1 @ 4 μg/mL) was greater than 128 µg/mL. For the same compound, the MIC ([2]; strain PRE UFR99 (OXA-1, OXA-181)) was greater than 256 µg/mL, the MIC ([2]; strain PRE UFR236 (TEM-1, OXA-48), read-out: MIC) was 64 µg/mL and the “MIC ATB in combination” value ([2]; strain PRE UFR236, antibacterial combined with AF1 @ 4 μg/mL) was 8 µg/mL. For the same compound, the “MIC ATB in combination” value ([3]; PST UFR94) was 8 µg/mL, the “MIC ATB in combination” value ([3]; PST UFR95) was 32 µg/mL and the “MIC ATB in combination” value ([3]; PST UFR235) was 8 µg/mL. The MIC ([3]; strain PST UFR94 (CTX-M-14)) was greater than 256 µg/mL, the MIC ([3]; strain PST UFR95 (TEM-24)) was 128 µg/mL and the MIC ([3]; strain PST UFR235 (VEB-1)) was 256 µg/mL. For the same compound, the “MIC ATB in combination” value ([4]; STY S3371, AF1 @ 4 μg/mL) was 4 µg/mL and the MIC ([4]; Salmonella enterica, TYPHIMURIUM, strain STY S3371 (OXA-1), ATB alone) was 32 µg/mL.
